This passage reports surviving fraction results from the supplement of paper PMC6045584.

± gives the standard deviation of the averaged measurements.

Compound in one test: Oc1nc(-c2ccc(C(F)(F)F)cc2)nc2c1CSCC2 [XAV-939]
The experiment in a line: surviving fraction relative to DMSO-only wells; higher = less growth inhibition. To be noted: exposure time: 5 days. In outline: (§1)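 Log-phase tumour cells were seeded at 250–500 per well in 384-well plates and, from 24 hours after seeding, exposed continuously for five days to inhibitors at 0.5, 1, 5, 10, 50, 100, 500 and 1000 nM. Surviving fraction is CellTiter-Glo luminescence normalised to the median of DMSO-only wells. Luminescence was measured after 10 minutes at room temperature, and only lines screened three times with replicate Pearson r >0.7 and median Z' >0.3 were kept.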

Compound in another test: NS(=O)(=O)OC[C@@H]1C[C@@H](n2ccc3c(N[C@H]4CCc5ccccc54)ncnc32)C[C@@H]1O [MLN-4924]
The description is as above. To be noted: exposure time: 5 days. In short, it runs like this:
as §1

Consider SG32 HEADNECK, for which the surviving fraction with XAV-939 (0.5 nM) stood at 0.996 ± 0.26; in the test with XAV-939 (1 nM), 1.02 ± 0.092; with XAV-939 (5 nM), 1.66 ± 1.1; with XAV-939 (10 nM), 1.13 ± 0.1; with XAV-939 (50 nM), 1.02 ± 0.12; with XAV-939 (100 nM), 1.08 ± 0.13. Further, the surviving fraction with XAV-939 (500 nM) was 0.721 ± 0.17; with XAV-939 (1000 nM) it was 0.603 ± 0.034; in the test with MLN-4924 (0.5 nM), 1.17 ± 0.11; in the test with MLN-4924 (1 nM), 1.05 ± 0.14; in the test with MLN-4924 (5 nM), 1.36 ± 0.08; in the test with MLN-4924 (10 nM), 1.28 ± 0.16. For the same test system, the surviving fraction worked out at 1.04 ± 0.044 with MLN-4924 (50 nM), 0.797 ± 0.051 with MLN-4924 (100 nM), 0.277 ± 0.023 with MLN-4924 (500 nM) and 0.186 ± 0.018 with MLN-4924 (1000 nM).
As for HT1080 SOFT TISSUE, the surviving fraction with XAV-939 (0.5 nM) turned out to be 1.05 ± 0.018; with XAV-939 (1 nM), 1.04 ± 0.05; with XAV-939 (5 nM), 1.03 ± 0.024; with XAV-939 (10 nM), 1.02 ± 0.023; with XAV-939 (50 nM) it was 0.971 ± 0.0036; with XAV-939 (100 nM), 0.872 ± 0.0099. In addition, the surviving fraction was found to be 0.579 ± 0.0091 with XAV-939 (500 nM); 0.476 ± 0.0083 with XAV-939 (1000 nM); 1.074 ± 0.0072 with MLN-4924 (0.5 nM); 1.05 ± 0.047 in the test with MLN-4924 (1 nM); 1.112 ± 0.0055 in the test with MLN-4924 (5 nM); 1.14 ± 0.045 with MLN-4924 (10 nM). Further, the surviving fraction came out at 0.9977 ± 0.0078 with MLN-4924 (50 nM), 0.705 ± 0.042 with MLN-4924 (100 nM), 0.223 ± 0.022 with MLN-4924 (500 nM) and 0.11 ± 0.0061 with MLN-4924 (1000 nM).
For CME SYNOVIAL, the surviving fraction with XAV-939 (0.5 nM) is 1.27 ± 0.24; with XAV-939 (1 nM), 1.2 ± 0.093; in the test with XAV-939 (5 nM) it was 1.25 ± 0.16; with XAV-939 (10 nM), 1.3 ± 0.093; in the test with XAV-939 (50 nM), 1.29 ± 0.14; with XAV-939 (100 nM) it was 1.3 ± 0.071. Besides, the surviving fraction came out at 1.1 ± 0.03 with XAV-939 (500 nM); 0.952 ± 0.094 with XAV-939 (1000 nM); 1.19 ± 0.11 in the test with MLN-4924 (0.5 nM); 1.25 ± 0.15 in the test with MLN-4924 (1 nM); 1.32 ± 0.19 in the test with MLN-4924 (5 nM); 1.27 ± 0.07 in the test with MLN-4924 (10 nM). For the same test system, the surviving fraction was found to be 0.692 ± 0.1 with MLN-4924 (50 nM), 0.271 ± 0.026 with MLN-4924 (100 nM), 0.273 ± 0.019 in the test with MLN-4924 (500 nM) and 0.304 ± 0.023 with MLN-4924 (1000 nM).
On to HCC1954 BREAST, for which the surviving fraction came to 0.826 ± 0.073 in the test with XAV-939 (0.5 nM); 1.02 ± 0.041 in the test with XAV-939 (1 nM); 1.15 ± 0.24 with XAV-939 (5 nM); 1.06 ± 0.042 in the test with XAV-939 (10 nM); 1.111 ± 0.0085 in the test with XAV-939 (50 nM); 0.967 ± 0.088 with XAV-939 (100 nM). In addition, the surviving fraction with XAV-939 (500 nM) is 0.637 ± 0.0081; in the test with XAV-939 (1000 nM), 0.723 ± 0.057; with MLN-4924 (0.5 nM) it was 1.12 ± 0.082; with MLN-4924 (1 nM), 1.13 ± 0.045; with MLN-4924 (5 nM) it was 1.09 ± 0.049; with MLN-4924 (10 nM), 1.17 ± 0.3. The surviving fraction in the test with MLN-4924 (50 nM) is 0.656 ± 0.075; with MLN-4924 (100 nM), 0.518 ± 0.021; with MLN-4924 (500 nM), 0.1795 ± 0.0014; with MLN-4924 (1000 nM), 0.112 ± 0.016.
For MDAMB361 BREAST, the surviving fraction stood at 0.879 ± 0.03 with XAV-939 (0.5 nM); 0.906 ± 0.036 with XAV-939 (1 nM); 0.955 ± 0.045 in the test with XAV-939 (5 nM); 0.901 ± 0.034 with XAV-939 (10 nM); 1 ± 0.02 with XAV-939 (50 nM); 0.917 ± 0.099 in the test with XAV-939 (100 nM). The surviving fraction in the test with XAV-939 (500 nM) came to 0.923 ± 0.024; in the test with XAV-939 (1000 nM), 0.874 ± 0.054; with MLN-4924 (0.5 nM), 0.894 ± 0.12; with MLN-4924 (1 nM), 0.785 ± 0.028; in the test with MLN-4924 (5 nM) it was 0.829 ± 0.051; in the test with MLN-4924 (10 nM), 0.853 ± 0.1. Further, the surviving fraction with MLN-4924 (50 nM) is 0.735 ± 0.048; in the test with MLN-4924 (100 nM) it was 0.736 ± 0.061; with MLN-4924 (500 nM) it was 0.594 ± 0.03; with MLN-4924 (1000 nM), 0.549 ± 0.042.
